This assay deals with chicken dorsal root ganglion neurons. Description: Neuronal viability assay (calcein-AM) in primary culture of chicken dorsal root ganglion neurons. It counts as cell-based, White Leghorn chick embryos. The settings on record: Gallus gallus, DRG neuron, 48 h; survival of chick DRG neurons after two days of incubation; 0% = no neurotrophic factor, 100% = 10 ng/ml NGF; read-out: [C1] DRG assay SCORE (pIC50 value scored) (converted). From the text:
This assay is based on a fluorimetric Calcein-AM measurement and addresses the functional response of neurons as a quantitative measure of survival.
Dorsal root ganglia were dissected from White Leghorn chick embryos at embryonic day 10 as described previously (Skaper S. D. and Varon S. (1986) Brain Research 389, 39-46). The ganglia were trypsinised and dissociated by mild trituration in a HBSS buffer supplemented with 0.6% glucose and 0.08% trypsin. To remove non-neuronal cells by differential attachment to culture plastic, the ganglionic cell suspension was lo diluted to 2.5×10^5 cells/ml and seeded on tissue culture plastic dishes at 10 ml per 100 mm dish. After 2 h preplating, unattached neurons were collected and resuspended into Basal Eagle Medium containing 10% FCS. To remove cell aggregates, the cell suspension was passed through a nylon mesh (50 μM) pore diameter. Neuron-enriched cell suspension was plated at 5×10^4 cells/ml into poly-L-ornithine (100 μg/ml) and laminine (1 μg/ml) coated multiwell 96 plates. Compounds were dissolved in dimethyl sulfoxide and kept as a stock at −20° C. NGF and compounds were diluted in the culture medium and added to the cells immediately after plating. The final concentration of dimethyl sulfoxide in the test medium was 0.1%. After two days of incubation, neuronal viability was assessed with calcein-AM.
Neuronal viability assay using calcein AM was performed as previously described (Bozyczko-Coyne D., McKenna B. W., Connors T. J., and Neff N. T. (1993) Journal of Neuroscience Methods 50, 205-216). For the assay, calcein-AM was diluted in PBS to the final concentration (1 μM). […] Following the incubation, reading was done in a Cytofluor II at an excitation wavelength of 485 nm and an emission wavelength of 530 nm. […]
The drugs to be tested were taken from a stock solution and tested at a final concentration ranging from […] to 3.10^−9M. From the thus obtained dose response curves, the pIC50 value was calculated and scored as follows; Score 1=pIC50 value<6, Score 2=pIC50 value in the range of 6 to 8, Score 3=pIC50 value>8.
On to `CN(c1nc2ccc(F)cc2s1)C1CCN(C(=O)CCCCCCCC(=O)N2CCC(N(C)c3nc4ccc(F)cc4s3)CC2)CC1` [Compound 5], for which the IC50 is 10 to 1000 nM.

Take `CN(c1nc2ccccc2s1)C1CCN(C(=O)NC2CCC(CC3CCC(NC(=O)N4CCC(N(C)c5nc6ccccc6s5)CC4)CC3)CC2)CC1` (stereo not drawn) [Compound 9]: the IC50 is 10 to 1000 nM.

As to `c1ccc2c(c1)CCN2C1CCN(CCCN2CCC(N3CCc4ccccc43)CC2)CC1` [Compound 47], the IC50 is over 1000 nM.

The values above are taken from patent US20070299109A1, “Dimeric Compounds Of Piperidine, Piperazine Or Morpholine Or Their 7-Membered Analogs Suitable For The Treatment Of Neurodegenerative Disorders” (priority 2004, published 2007).
